In patent publication US11117894B2, “Pyridopyrazine compounds and uses thereof” (CITY OF HOPE, priority 2017, dated 2021):
pIC50: −log10 of the molar value.

Experiments:
[1] = test system: A2058 melanoma; assay: MTS cell viability assay, A2058 melanoma cell line; type: cell-based; settings: 48 h; for pIC50: Homo sapiens, MTS; for Viability % CTL A2058 melanoma: Table 1, screened at 10 μM; for Viability (% CTL) at 10 μM A2058 melanoma: Table 2, 10 μM; for Viability % CTL A2058 melanoma (10 μM): Table 4, 10 μM
Experimental: (§1) MTS assays were performed for cell viability. To determine if novel pyridopyrazine derivatives have antitumor activities, compounds were screened at 10 μM final concentration with A2058 melanoma and DU145 prostate cancer cell lines. Compounds #16 and #17 were selected to determine IC50 values against lung cancer cell lines, including A549, DMS273, H69, H513, H2461, DMS114, H358 and H2596. In this assay, cells (5000/well) were seeded in 96-well plates, incubated overnight at 37° C. in 5% CO2, and exposed to 10 μM of compounds or in a dose-dependent manner for 48 h. After 48 h treatment with compounds, MTS dye (20 μL/well) was added to 96-well plates. Viable cell numbers were determined by tetrazolium conversion to its formazan dye. Absorbance was measured at 490 nm using an automated ELISA plate reader. Dimethyl sulfoxide (DMSO) was used as the vehicle control. Each experiment was conducted in triplicate. IC50 values were determined using CalcuSyn software (Biosoft).

[2] = test system: DU145 prostate cancer; assay: MTS cell viability assay, DU145 prostate cancer cell line; type: cell-based; settings: 48 h; for pIC50: Homo sapiens, DU-145, DU145 prostate cancer, MTS; for Viability % CTL DU145 prostate: Table 1, screened at 10 μM; for Viability (% CTL) at 10 μM DU145 prostate: Table 2; for Viability % CTL DU145 prostate (10 μM ): Table 4
Experimental: as §1

[3] = test system: A549 NSCLC; assay: MTS cell viability assay, A549 lung cancer cell line; type: cell-based; settings: Homo sapiens, 48 h
Experimental: as §1

[4] = test system: DMS273 small cell lung cancer; assay: MTS cell viability assay, DMS273 lung cancer cell line; type: cell-based; settings: Homo sapiens, DMS-273, 48 h
Experimental: as §1

[5] = test system: H69 small cell lung cancer; assay: MTS cell viability assay, H69 lung cancer cell line; type: cell-based; settings: 48 h
Experimental: as §1

[6] = test system: H513 NSCLC; assay: MTS cell viability assay, H513 lung cancer cell line; type: cell-based; settings: 48 h
Experimental: as §1

[7] = test system: H2461 NSCLC; assay: MTS cell viability assay, H2461 lung cancer cell line; type: cell-based; settings: 48 h
Experimental: as §1

[8] = test system: DMS114 small cell lung cancer; assay: MTS cell viability assay, DMS114 lung cancer cell line; type: cell-based; settings: Homo sapiens, DMS-114, 48 h
Experimental: as §1

[9] = test system: H358 NSCLC; assay: MTS cell viability assay, H358 lung cancer cell line; type: cell-based; settings: Homo sapiens, NCI-H358, 48 h
Experimental: as §1

[10] = test system: H2596 NSCLC; assay: MTS cell viability assay, H2596 lung cancer cell line; type: cell-based; settings: 48 h
Experimental: as §1

Cc1nc2nc(Nc3ccccc3)cnc2cc1NC(=O)Nc1cccc(C(F)(F)F)c1 [Compound 16, 1-(6-Methyl-3-(phenylamino)pyrido[2,3-b]pyrazin-7-yl)-3-(3-(trifluoromethyl)phenyl)urea]
pIC50 [1]: 5.89
Viability % CTL A2058 melanoma [1]: 4 % CTL
pIC50 [2]: 5.76
Viability % CTL DU145 prostate [2]: 10 % CTL
pIC50 [3]: 5.81
pIC50 [4]: 5.96
pIC50 [5]: 6.01
pIC50 [6]: 5.90
pIC50 [7]: 5.77
pIC50 [8]: 5.50
pIC50 [9]: 5.71
pIC50 [10]: 5.97

Cc1nc2nc(Nc3ccccc3)cnc2cc1N [Compound 7, 6-Methyl-N^3-phenylpyrido[2,3-b]pyrazine-3,7-diamine]
Viability (% CTL) at 10 μM A2058 melanoma [1]: 98 % CTL
Viability (% CTL) at 10 μM DU145 prostate [2]: 76 % CTL
melting point: > 300 °C (dec.)

Cc1nc2nc(Nc3ccccc3)cnc2cc1NC(=O)c1ccc(N)cc1 [Compound 13, 4-Amino-N-(6-methyl-3-(phenylamino)pyrido[2,3-b]pyrazin-7-yl)benzamide]
Viability (% CTL) at 10 μM A2058 melanoma [1]: 84 % CTL
Viability (% CTL) at 10 μM DU145 prostate [2]: 77 % CTL
melting point: 265 °C

Cc1nc2nc(Nc3ccccc3)cnc2cc1NC(=O)Nc1ccc(F)c(Cl)c1 [Compound 17, 1-(3-Chloro-4-fluorophenyl)-3-(6-methyl-3-(phenylamino)pyrido[2,3-b]pyrazin-7-yl)urea]
pIC50 [1]: 5.95
Viability % CTL A2058 melanoma [1]: 2 % CTL
pIC50 [2]: 5.98
Viability % CTL DU145 prostate [2]: 0 % CTL
pIC50 [3]: 6.04
pIC50 [4]: 6.49
pIC50 [5]: 6.29
pIC50 [6]: 6.16
pIC50 [7]: 6.10
pIC50 [8]: 6.14
pIC50 [9]: 5.93
pIC50 [10]: 6.21

CCOC(=O)c1ccc(Nc2cnc3cc(NC(=O)Nc4ccc(F)c(Cl)c4)c(C)nc3n2)cc1 [Compound 28, Ethyl 4-((7-(3-(3-chloro-4-fluorophenyl)ureido)-6-methylpyrido[2,3-b]pyrazin-3-yl)amino)benzoate]
pIC50 [1]: 5.15
Viability % CTL A2058 melanoma (10 μM) [1]: 35 % CTL
pIC50 [2]: 5.00
Viability % CTL DU145 prostate (10 μM ) [2]: 40 % CTL

Cc1nc2nc(Nc3ccccc3)cnc2cc1NC(=O)c1ccc(NC(=O)Nc2ccccc2)cc1 [Compound 14, N-(6-Methyl-3-(phenylamino)pyrido[2,3-b]pyrazin-7-yl)-4-(3-phenylureido)benzamide]
Viability (% CTL) at 10 μM A2058 melanoma [1]: 75 % CTL
Viability (% CTL) at 10 μM DU145 prostate [2]: 80 % CTL

Cc1nc2nccnc2cc1NC(=O)c1ccc([N+](=O)[O-])cc1 [Compound 11A]
Viability % CTL A2058 melanoma [1]: 87 % CTL
Viability % CTL DU145 prostate [2]: 106 % CTL

Cc1nc2nccnc2cc1NC(=O)CN1CCN(C)CC1 [Compound 13A]
Viability % CTL A2058 melanoma [1]: 94 % CTL
Viability % CTL DU145 prostate [2]: 86 % CTL

Cc1nc2nccnc2cc1NC(=O)c1ccc(Br)cc1F [Compound 10A]
Viability % CTL A2058 melanoma [1]: 93 % CTL
Viability % CTL DU145 prostate [2]: 95 % CTL

CSc1ccc(NC(=O)Nc2cc3ncc(Sc4ccccc4)nc3nc2C)cc1 [Compound 19B]
Viability % CTL A2058 melanoma [1]: 89 % CTL
Viability % CTL DU145 prostate [2]: 113 % CTL

CC(=O)Nc1cccc(Nc2cnc3cc(NC(=O)Nc4ccc(F)c(Cl)c4)c(C)nc3n2)c1 [Compound 30, N-(3-((7-(3-(3-Chloro-4-fluorophenyl)ureido)-6-methylpyrido[2,3-b]pyrazin-3-yl)amino)phenyl)acetamide]
Viability % CTL A2058 melanoma (10 μM) [1]: 118 % CTL
Viability % CTL DU145 prostate (10 μM ) [2]: 64 % CTL

CSc1ccc(NC(=O)Nc2cc3ncc(Nc4ccccc4)nc3nc2C)cc1 [Compound 18, 1-(6-Methyl-3-(phenylamino)pyrido[2,3-b]pyrazin-7-yl)-3-(4-(methylthio)phenyl)urea]
pIC50 [1]: 5.89
Viability % CTL A2058 melanoma (10 μM) [1]: 7 % CTL
pIC50 [2]: 5.62
Viability % CTL DU145 prostate (10 μM ) [2]: 6 % CTL

Cc1nc2nc(Nc3ccc(C(=O)O)cc3)cnc2cc1NC(=O)Nc1ccc(F)c(Cl)c1 [Compound 35, 4-((7-(3-(3-Chloro-4-fluorophenyl)ureido)-6-methylpyrido[2,3-b]pyrazin-3-yl)amino)benzoic acid]
Viability % CTL A2058 melanoma (10 μM) [1]: 98 % CTL
Viability % CTL DU145 prostate (10 μM ) [2]: 82 % CTL

Cc1nc2nccnc2cc1NC(=O)Nc1cccc(C(F)(F)F)c1 [Compound 17A]
Viability % CTL A2058 melanoma [1]: 79 % CTL
Viability % CTL DU145 prostate [2]: 98 % CTL

CCOC(=O)c1ccc(Nc2cnc3cc(NC(=O)Nc4cccc(C(F)(F)F)c4)c(C)nc3n2)cc1 [Compound 29, Ethyl 4-((6-methyl-7-(3-(3-(trifluoromethyl)phenyl)ureido)pyrido[2,3-b]pyrazin-3-yl)amino)benzoate]
pIC50 [1]: 5.21
Viability % CTL A2058 melanoma (10 μM) [1]: 37 % CTL
pIC50 [2]: 4.89
Viability % CTL DU145 prostate (10 μM ) [2]: 48 % CTL

Cc1nc2nc(Nc3ccccc3)cnc2cc1NC(=O)Nc1ccccc1 [Compound 15, 1-(6-Methyl-3-(phenylamino)pyrido[2,3-b]pyrazin-7-yl)-3-phenylurea]
Viability (% CTL) at 10 μM A2058 melanoma [1]: 5 % CTL
Viability (% CTL) at 10 μM DU145 prostate [2]: 4 % CTL
